{"source": "PubChem BioAssay (NCI)", "experiment_in_all_cases": "NCI tumour cell line growth inhibition, 48 h", "key": {"SK-OV-3 ovarian": {"system": "SK-OV-3 ovarian"}, "HCT-116 colon": {"system": "HCT-116 colon"}, "TK-10 renal": {"system": "TK-10 renal"}, "SF-295 CNS": {"system": "SF-295 CNS"}, "CAKI-1 renal": {"system": "CAKI-1 renal"}, "MCF7 breast": {"system": "MCF7 breast"}, "K-562 leukemia": {"system": "K-562 leukemia"}, "SN12C renal": {"system": "SN12C renal"}, "NCI-H460 lung": {"system": "NCI-H460 lung"}, "SF-268 CNS": {"system": "SF-268 CNS"}, "OVCAR-4 ovarian": {"system": "OVCAR-4 ovarian"}, "OVCAR-3 ovarian": {"system": "OVCAR-3 ovarian"}, "PC-3 prostate": {"system": "PC-3 prostate"}, "UO-31 renal": {"system": "UO-31 renal"}, "MOLT-4 leukemia": {"system": "MOLT-4 leukemia"}, "DU-145 prostate": {"system": "DU-145 prostate"}, "NCI/ADR-RES ovarian": {"system": "NCI/ADR-RES ovarian"}, "SK-MEL-5 melanoma": {"system": "SK-MEL-5 melanoma"}, "SW-620 colon": {"system": "SW-620 colon"}, "LOX IMVI melanoma": {"system": "LOX IMVI melanoma"}, "COLO 205 colon": {"system": "COLO 205 colon"}, "NCI-H23 lung": {"system": "NCI-H23 lung"}, "RPMI-8226 leukemia": {"system": "RPMI-8226 leukemia"}, "SNB-19 CNS": {"system": "SNB-19 CNS"}, "T-47D breast": {"system": "T-47D breast"}, "KM12 colon": {"system": "KM12 colon"}, "MALME-3M melanoma": {"system": "MALME-3M melanoma"}, "MDA-MB-435": {"system": "MDA-MB-435"}, "OVCAR-8 ovarian": {"system": "OVCAR-8 ovarian"}, "HL-60(TB) leukemia": {"system": "HL-60(TB) leukemia"}, "M14 melanoma": {"system": "M14 melanoma"}, "NCI-H522 lung": {"system": "NCI-H522 lung"}, "CCRF-CEM leukemia": {"system": "CCRF-CEM leukemia"}, "SK-MEL-2 melanoma": {"system": "SK-MEL-2 melanoma"}, "HOP-92 NSCLC": {"system": "HOP-92 NSCLC"}, "MDA-MB-231 breast": {"system": "MDA-MB-231 breast"}, "OVCAR-5 ovarian": {"system": "OVCAR-5 ovarian"}, "IGROV1 ovarian": {"system": "IGROV1 ovarian"}, "SR leukemia": {"system": "SR leukemia"}, "EKVX NSCLC": {"system": "EKVX NSCLC"}, "SK-MEL-28 melanoma": {"system": "SK-MEL-28 melanoma"}, "HCT-15 colon": {"system": "HCT-15 colon"}, "ACHN renal": {"system": "ACHN renal"}, "A549 NSCLC": {"system": "A549 NSCLC"}, "HT29 colon": {"system": "HT29 colon"}, "HCC-2998 colon": {"system": "HCC-2998 colon"}, "UACC-257 melanoma": {"system": "UACC-257 melanoma"}, "UACC-62 melanoma": {"system": "UACC-62 melanoma"}}, "note": "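Compound exposure: 48 hours, 5 concentrations, 96-well plates. TGI: total growth inhibition.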", "data": [{"smiles": "O=C1CSC2=NC3=C(CSC/C3=C\\c3ccc(Cl)cc3)C(c3ccc(Cl)cc3)N12", "note": "(stereo not drawn)", "values": [{"measurement": "TGI", "setting": "SK-OV-3 ovarian", "result": "> 100", "unit": "µM"}, {"measurement": "TGI", "setting": "HCT-116 colon", "result": 29, "unit": "µM"}, {"measurement": "TGI", "setting": "TK-10 renal", "result": "> 100", "unit": "µM"}, {"measurement": "TGI", "setting": "SF-295 CNS", "result": 47.6, "unit": "µM"}, {"measurement": "TGI", "setting": "CAKI-1 renal", "result": "> 100", "unit": "µM"}, {"measurement": "TGI", "setting": "MCF7 breast", "result": 87.2, "unit": "µM"}, {"measurement": "TGI", "setting": "K-562 leukemia", "result": "> 100", "unit": "µM"}, {"measurement": "TGI", "setting": "SN12C renal", "result": 39.2, "unit": "µM"}, {"measurement": "TGI", "setting": "NCI-H460 lung", "result": "> 100", "unit": "µM"}, {"measurement": "TGI", "setting": "SF-268 CNS", "result": "> 100", "unit": "µM"}, {"measurement": "TGI", "setting": "OVCAR-4 ovarian", "result": 67.1, "unit": "µM"}, {"measurement": "TGI", "setting": "OVCAR-3 ovarian", "result": 67, "unit": "µM"}, {"measurement": "TGI", "setting": "PC-3 prostate", "result": "> 100", "unit": "µM"}, {"measurement": "TGI", "setting": "UO-31 renal", "result": 29.3, "unit": "µM"}, {"measurement": "TGI", "setting": "MOLT-4 leukemia", "result": 43.4, "unit": "µM"}, {"measurement": "TGI", "setting": "DU-145 prostate", "result": "> 100", "unit": "µM"}, {"measurement": "TGI", "setting": "NCI/ADR-RES ovarian", "result": "> 100", "unit": "µM"}, {"measurement": "TGI", "setting": "SK-MEL-5 melanoma", "result": 29.3, "unit": "µM"}, {"measurement": "TGI", "setting": "SW-620 colon", "result": 62.3, "unit": "µM"}, {"measurement": "TGI", "setting": "LOX IMVI melanoma", "result": 28.7, "unit": "µM"}, {"measurement": "TGI", "setting": "COLO 205 colon", "result": "> 100", "unit": "µM"}, {"measurement": "TGI", "setting": "NCI-H23 lung", "result": "> 100", "unit": "µM"}, {"measurement": "TGI", "setting": "RPMI-8226 leukemia", "result": "> 100", "unit": "µM"}, {"measurement": "TGI", "setting": "SNB-19 CNS", "result": "> 100", "unit": "µM"}, {"measurement": "TGI", "setting": "T-47D breast", "result": "> 100", "unit": "µM"}, {"measurement": "TGI", "setting": "KM12 colon", "result": 79.1, "unit": "µM"}, {"measurement": "TGI", "setting": "MALME-3M melanoma", "result": "> 100", "unit": "µM"}, {"measurement": "TGI", "setting": "MDA-MB-435", "result": 66, "unit": "µM"}, {"measurement": "TGI", "setting": "OVCAR-8 ovarian", "result": 43.3, "unit": "µM"}, {"measurement": "TGI", "setting": "HL-60(TB) leukemia", "result": "> 100", "unit": "µM"}, {"measurement": "TGI", "setting": "M14 melanoma", "result": "> 100", "unit": "µM"}, {"measurement": "TGI", "setting": "NCI-H522 lung", "result": 36.3, "unit": "µM"}, {"measurement": "TGI", "setting": "CCRF-CEM leukemia", "result": "> 100", "unit": "µM"}, {"measurement": "TGI", "setting": "SK-MEL-2 melanoma", "result": 52.3, "unit": "µM"}, {"measurement": "TGI", "setting": "HOP-92 NSCLC", "result": 39.9, "unit": "µM"}, {"measurement": "TGI", "setting": "MDA-MB-231 breast", "result": "> 100", "unit": "µM"}, {"measurement": "TGI", "setting": "OVCAR-5 ovarian", "result": "> 100", "unit": "µM"}, {"measurement": "TGI", "setting": "IGROV1 ovarian", "result": "> 100", "unit": "µM"}, {"measurement": "TGI", "setting": "SR leukemia", "result": 56.3, "unit": "µM"}, {"measurement": "TGI", "setting": "EKVX NSCLC", "result": "> 100", "unit": "µM"}, {"measurement": "TGI", "setting": "SK-MEL-28 melanoma", "result": 81.9, "unit": "µM"}, {"measurement": "TGI", "setting": "HCT-15 colon", "result": 80.2, "unit": "µM"}, {"measurement": "TGI", "setting": "ACHN renal", "result": "> 100", "unit": "µM"}, {"measurement": "TGI", "setting": "A549 NSCLC", "result": "> 100", "unit": "µM"}, {"measurement": "TGI", "setting": "HT29 colon", "result": "> 100", "unit": "µM"}, {"measurement": "TGI", "setting": "HCC-2998 colon", "result": 89.2, "unit": "µM"}, {"measurement": "TGI", "setting": "UACC-257 melanoma", "result": 85.9, "unit": "µM"}, {"measurement": "TGI", "setting": "UACC-62 melanoma", "result": "> 100", "unit": "µM"}]}]}
